Measured values taken from publication PMC5834492, “Antimycobacterial drug discovery using Mycobacteria-infected amoebae identifies anti-infectives and new molecular targets” (Scientific Reports, 2018).

What was measured:
[1] = test system: M. marinum in BV2 microglial cells; assay type: cell-based, Mycobacterium marinum
[2] = test system: D. discoideum GFP-ABD
[3] = test system: M. marinum luxCDABE; assay type: cell-based, Mycobacterium marinum
[4] = test system: BV2 cells
[5] = test system: M. marinum in A. castellanii; assay type: cell-based, Mycobacterium marinum
[6] = test system: Mtb H37Rv; parameters: method as in Sorrentino et al, 2015; conditions: ref Sorrentino et al, 2015; cited from earlier work
[7] = test system: Mtb H37Rv in THP-1; parameters: method as in Sorrentino et al, 2015; conditions: ref Sorrentino et al, 2015, cited from earlier work; for Intracelullar MIC90 in THP-1: THP1 / Mtb H37Rv infection assay; for Extracellular MIC90/ Inracellular MIC90: ratio

Row | SMILES | Intracellular infection assays: BV2 / M. marinum [1] | Growth inhibition / Cytotoxicity assays: D. discoideum GFP-ABD [2] | Antibiotic assays: M. marinum luxCDABE [3] | Growth inhibition / Cytotoxicity assays: BV2 cells [4] | Intracellular infection assays: A. castellanii / M. marinum [5] | Extracellular MIC90 [6] | Intracelullar MIC90 in THP-1 [7] | Extracellular MIC90/ Inracellular MIC90 [7]
1 | c1ccc(CCNc2cc(-c3ccccc3)nc3nncn23)cc1 [GSK1402290A] | 1.11 | 0.84 | 0.14 | False | 1.08 | 5.5 µM | 5.55 µM | 0.99
2 | O=C(Nc1nnc(-c2ccc(Cl)cc2)o1)c1cccc(C(F)(F)F)c1 [GSK130506A] | 1.46 | 1.07 | 0.00 | False | 1.05 | 5.6 µM | 16.65 µM | 0.34
3 | COc1cc(Nc2ccccc2)ccc1NS(=O)(=O)c1c(C)noc1C [GSK270670A] | 1.42 | 0.94 | 1.00 | False | 1.11 | 6.1 µM | 50 µM | 0.12
4 | CCc1nc2ccccc2n1CC(O)COc1cc(C)ccc1Cl (stereo not shown) [GSK889423A] | 1.41 | 0.94 | 0.00 | False | 1.18 | 8.8 µM | 5.55 µM | 1.58
5 | COc1ccc2nc(C)cc(OCC(=O)NCc3ccccc3)c2c1 [GSK463114A] | 1.37 | 0.95 | 0.00 | False | 1.10 | 1.1 µM | 5.55 µM | 0.2
6 | Cc1cccc(-c2nc(Nc3ccncn3)c3c(C)csc3n2)n1 [GSK163574A] | 1.25 | 0.81 | 0.00 | False | 1.13 | 0.3 µM | 50 µM | 0.01
7 | COc1ccc(-c2ccc(Nc3cccc(S(=O)(=O)CCNCCc4cccs4)c3)nc2)cn1 [GSK1826089A] | 1.09 | 0.69 | 0.085 | False | 1.17 | 7.6 µM | 1.85 µM | 4.11
8 | Cc1ccc(CNC(=O)c2cnn3c2NC(c2ccc(C)cc2)CC3C(F)F)cc1 (stereo not shown) [GSK1180781A] | 1.23 | 1.05 | 1.00 | False | 1.14 | 1.2 µM | 0.21 µM | 5.71
9 | CCc1ccc(CN2CCC3(CC2)OCCc2sccc23)s1 [GSK2200160A] | 1.09 | 0.03 | 0.35 | False | 0.77 | 1 µM | 0.21 µM | 4.76
10 | CCCCc1ccc(C(=O)Nc2nccc3ccccc23)nc1 [SB-746177] | 1.27 | 0.92 | 0.00 | False | 1.01 | 9.2 µM | 1.85 µM | 4.97
11 | O=C(Nc1nc(-c2ccccn2)cs1)c1cncn1-c1ccccc1 [GSK1691553A] | 1.01 | 0.80 | 0.07 | False | 1.03 | 7.9 µM | 50 µM | 0.16
